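Growth conditions: 96-well plates. Treatment: test compound, 48 hours, 5 concentrations. Analysis: linear interpolation between bracketing concentrations; unreached endpoints set to highest concentration. Here, GI50 denotes the concentration required for 50% inhibition of growth. Definition used: TGI = concentration required for complete inhibition of growth.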

Among the test systems are MDA-MB-231 breast; MCF7 breast; ACHN renal; BT-549 breast; CAKI-1 renal; SF-295 CNS; IGROV1 ovarian; HCT-15 colon; SW-620 colon; SR leukemia.
Holding throughout (assay): DTP human tumour cell line panel, 48 h

In the case of `CNc1ccc2c(c1)[C@@]1(C)c3ccccc3[C@@H](C2)N1C`, the TGI in the assay on MDA-MB-231 breast is 62.6 µM; with MCF7 breast it was more than 100 µM; in the assay with ACHN renal, more than 100 µM; in the assay with BT-549 breast it was 35.9 µM; in the assay with CAKI-1 renal, more than 100 µM; with SF-295 CNS, more than 100 µM. Moreover, the TGI is more than 100 µM with IGROV1 ovarian, 53 µM in the assay with HCT-15 colon, more than 100 µM in the assay with SW-620 colon and 54.7 µM in the assay with SR leukemia.
As to `Nc1cccc(/C=C/C(=O)N2CCN(CCOC(c3ccccc3)c3ccccc3)CC2)c1`, the TGI with MDA-MB-231 breast stood at 29.1 µM; in the assay on MCF7 breast, 31.5 µM; with ACHN renal, 31.6 µM; with BT-549 breast, 29.2 µM; with CAKI-1 renal, 34.8 µM; in the assay with SF-295 CNS, 32.1 µM. Also, the TGI was 33.6 µM with IGROV1 ovarian, 31.5 µM in the assay on HCT-15 colon, 35 µM in the assay on SW-620 colon and 30.9 µM with SR leukemia.
On to `CC1=CC(=O)c2ccccc2C1=O`, for which the TGI in the assay with MDA-MB-231 breast stood at 9.87 µM; with MCF7 breast it was 23.8 µM; with ACHN renal, 13.1 µM; in the assay on BT-549 breast, 25.6 µM; in the assay on CAKI-1 renal, 29.7 µM; in the assay on SF-295 CNS, 30.3 µM. Besides, the TGI in the assay on IGROV1 ovarian is 29.2 µM; with HCT-15 colon, 14.1 µM; with SW-620 colon, 4.82 µM; in the assay with SR leukemia it was more than 29 µM.
Turning to `C[C@H](CCC(=O)O)[C@H]1CC[C@@]2(C)[C@@H]3C(=O)C[C@H]4C(C)(C)[C@@H](O)CC[C@]4(C)[C@H]3C(=O)C[C@]12C`, the TGI with MDA-MB-231 breast, with MCF7 breast, with ACHN renal, in the assay with BT-549 breast, with CAKI-1 renal and with SF-295 CNS was more than 100 µM each time. For the same compound, the TGI in the assay with IGROV1 ovarian, in the assay with HCT-15 colon, with SW-620 colon and with SR leukemia was more than 100 µM each time.
Regarding `CC1=NN(c2cccc(Cl)c2)C2(SCC(=O)N2c2nc3ccccc3s2)/C1=C\c1cccs1` (centres undefined), the TGI in the assay on MDA-MB-231 breast is 87 µM; in the assay with MCF7 breast it was more than 100 µM; in the assay with ACHN renal, more than 100 µM; in the assay on BT-549 breast, 37.1 µM; in the assay on CAKI-1 renal, 99 µM; in the assay with SF-295 CNS, 78.3 µM. The TGI in the assay with IGROV1 ovarian is more than 100 µM; in the assay with HCT-15 colon, 54.8 µM; in the assay on SW-620 colon it was more than 100 µM; in the assay with SR leukemia, 30.1 µM.
Turning to `COc1nc(C#CC2(O)CCCCC2)nc(OC)n1`, the total growth inhibition concentration (TGI) in the assay with MDA-MB-231 breast turned out to be 15 µM; in the assay with MCF7 breast, 19.4 µM; with ACHN renal, 21.9 µM; in the assay with BT-549 breast, 28 µM; in the assay with CAKI-1 renal, 15.9 µM; with SF-295 CNS it was 60.4 µM. The TGI in the assay with IGROV1 ovarian is 23.1 µM; in the assay with HCT-15 colon, 15.6 µM; with SW-620 colon, 24.1 µM; in the assay with SR leukemia, 17.4 µM.
In the case of `C(=N\NC1=NCCN1)/c1ccc(-c2cn3cc(/C=N/NC4=NCCN4)ccc3n2)cc1`, the TGI in the assay on MDA-MB-231 breast was 34.6 µM; with MCF7 breast it was more than 100 µM; in the assay on ACHN renal it was more than 100 µM; with BT-549 breast, 52.9 µM; with CAKI-1 renal, 49.4 µM; in the assay with SF-295 CNS it was more than 70.1 µM. Besides, the TGI was more than 64.5 µM in the assay on IGROV1 ovarian, more than 100 µM in the assay with HCT-15 colon, more than 100 µM in the assay on SW-620 colon and 13.5 µM with SR leukemia.
For the compound `CCCNC(=O)CCC(C)C1CCC2C3C(C[C@H](OC(C)=O)[C@]12C)[C@@]1(C)CCC2(C[C@H]1C[C@H]3OC(C)=O)OOC1(CC[C@]3(C)C4C[C@H](OC(C)=O)[C@]5(C)C(C(C)CCC(=O)NCCC)CCC5C4[C@H](OC(C)=O)C[C@@H]3C1)OO2` (some centres undefined), the TGI in the assay on MDA-MB-231 breast is more than 83.4 µM; in the assay with MCF7 breast, more than 100 µM; in the assay on ACHN renal, more than 82.2 µM; with BT-549 breast it was more than 100 µM; in the assay on CAKI-1 renal, more than 100 µM; in the assay on SF-295 CNS, more than 100 µM. For the same compound, the TGI in the assay with IGROV1 ovarian, with HCT-15 colon, with SW-620 colon and in the assay on SR leukemia was more than 100 µM throughout.
With `Cc1ccccc1C(=O)N/N=C/c1ccc(Sc2nccn2C)c([N+](=O)[O-])c1`, the TGI in the assay with MDA-MB-231 breast, with MCF7 breast, with ACHN renal, with BT-549 breast, in the assay on CAKI-1 renal and in the assay on SF-295 CNS was more than 100 µM throughout. The TGI with IGROV1 ovarian, in the assay on HCT-15 colon, in the assay on SW-620 colon and in the assay with SR leukemia was more than 100 µM in each case.
`O=C(O)C1C2CCC(O2)C1C(=O)Nc1cccc2cccnc12` (centres undefined): the TGI with MDA-MB-231 breast, with MCF7 breast, in the assay with ACHN renal, with BT-549 breast, in the assay on CAKI-1 renal and in the assay on SF-295 CNS was more than 100 µM in each case. Also, the TGI in the assay with IGROV1 ovarian, in the assay on HCT-15 colon, in the assay with SW-620 colon and with SR leukemia was more than 100 µM each time.
Take `O=c1[nH]nc(NNc2ccccc2)c2nnn(C3CCCCC3)c12`: the TGI in the assay on MDA-MB-231 breast, with MCF7 breast, in the assay on ACHN renal, with BT-549 breast, in the assay on CAKI-1 renal and in the assay on SF-295 CNS was more than 100 µM each time. Moreover, the TGI in the assay on HCT-15 colon and in the assay with SR leukemia was more than 100 µM throughout.
For the compound `CC(C)(C)c1cc(C2=NNC(c3ccccc3)C2)cc(C(C)(C)C)c1O` (centres undefined), the TGI in the assay on MDA-MB-231 breast is 27.5 µM; with MCF7 breast, 27.7 µM; in the assay on ACHN renal it was 29.8 µM; with BT-549 breast, 32 µM; in the assay with CAKI-1 renal, 28.2 µM; in the assay with SF-295 CNS, 37.7 µM. In addition, the TGI worked out at 30.2 µM in the assay with IGROV1 ovarian, 31.2 µM with HCT-15 colon, 34.3 µM in the assay on SW-620 colon and 27.5 µM with SR leukemia.
As for `Cc1nn(-c2ccccc2)c(C)c1/C=N/N=C1\SCC(=O)N1c1ccccc1`, the TGI in the assay with MDA-MB-231 breast was more than 100 µM; in the assay on MCF7 breast, more than 100 µM; with ACHN renal it was 34.4 µM; with BT-549 breast, 43 µM; in the assay with CAKI-1 renal it was 44.9 µM; in the assay on SF-295 CNS, 53.5 µM. The TGI in the assay on IGROV1 ovarian was 93.9 µM; in the assay with HCT-15 colon it was 63.6 µM; with SW-620 colon, more than 100 µM; with SR leukemia it was more than 100 µM.
Take `Fc1ccc(C(OCCN2CCC3CCC(C2)N3C/C=C/c2ccco2)c2ccc(F)cc2)cc1` (centres undefined): the TGI in the assay on MDA-MB-231 breast is 23.6 µM; in the assay with MCF7 breast, 22.7 µM; in the assay on ACHN renal it was 25.3 µM; in the assay on BT-549 breast, 25.7 µM; with CAKI-1 renal, 27.9 µM; with SF-295 CNS, 27.7 µM. In addition, the TGI in the assay on IGROV1 ovarian was determined as 21 µM; in the assay with HCT-15 colon, 18.6 µM; in the assay with SW-620 colon it was 21.6 µM; with SR leukemia, 42.7 µM.
On to `O=C(C[n+]1ccc2ccccc2c1)c1ccc2ccc3ccccc3c2c1`, for which the TGI in the assay with MDA-MB-231 breast was determined as 15.3 µM; in the assay with MCF7 breast it was 11.3 µM; with ACHN renal, 14.8 µM; in the assay with BT-549 breast, 24 µM; in the assay with CAKI-1 renal, 20.1 µM; in the assay with SF-295 CNS it was 16.4 µM. Moreover, the TGI in the assay on IGROV1 ovarian was found to be 17.2 µM; in the assay with HCT-15 colon, 18.9 µM; with SW-620 colon, 13.1 µM; in the assay with SR leukemia, 2.15 µM.
In the case of `CCOC(=O)C(NC(=O)c1ccco1)(Nc1nc2ccc(OCC)cc2s1)C(F)(F)F` (centres undefined), the TGI with MDA-MB-231 breast is more than 100 µM; in the assay with MCF7 breast it was 78.8 µM; with ACHN renal, 82.3 µM; in the assay on BT-549 breast it was more than 100 µM; with CAKI-1 renal, 45.8 µM; with SF-295 CNS, more than 100 µM. The values for the TGI in the assay with HCT-15 colon, in the assay on SW-620 colon and in the assay on SR leukemia were more than 100 µM, more than 100 µM and 88.5 µM, respectively.
As to `CCn1c(-c2ccc(N=NNc3ccc(-c4n[nH]c(=S)n4CC)cc3)cc2)n[nH]c1=S`, the TGI in the assay on MDA-MB-231 breast is more than 100 µM; in the assay on MCF7 breast, 29.2 µM; in the assay with ACHN renal, 6.1 µM; in the assay with BT-549 breast, 5.73 µM; with SF-295 CNS it was 7.1 µM; in the assay with HCT-15 colon, more than 100 µM. The TGI in the assay on SW-620 colon and in the assay with SR leukemia was more than 100 µM throughout.
In the case of `COc1ccc(C(=O)/C=C/c2cccc([N+](=O)[O-])c2)c(OC)c1`, the GI50 in the assay on MDA-MB-231 breast was 1.92 µM; in the assay on MCF7 breast, 1.37 µM; with BT-549 breast, 1.12 µM; in the assay with CAKI-1 renal, 1.98 µM; in the assay with SF-295 CNS it was 2.39 µM; in the assay on HCT-15 colon, 0.916 µM. In addition, the GI50 was 1.2 µM in the assay with SW-620 colon and 0.678 µM in the assay on SR leukemia. Further, the TGI was more than 50 µM with MDA-MB-231 breast; more than 50 µM with MCF7 breast; 2.99 µM with BT-549 breast; more than 50 µM in the assay on CAKI-1 renal; more than 50 µM with SF-295 CNS; 2.61 µM in the assay with HCT-15 colon. Besides, the TGI in the assay with SW-620 colon worked out at 2.54 µM; with SR leukemia, 4.02 µM.
As for `NCCCCc1cc(O)c2c(c1O)C(=O)c1ccccc1C2=O`, the TGI in the assay with MDA-MB-231 breast was 24.2 µM; with MCF7 breast, 27.4 µM; with ACHN renal it was 25.4 µM; in the assay with BT-549 breast, 49.9 µM; with CAKI-1 renal, 27.2 µM; with SF-295 CNS it was 28.6 µM. In addition, the TGI was 22.2 µM with IGROV1 ovarian, 25.5 µM with HCT-15 colon, more than 44.2 µM in the assay with SW-620 colon and 19.8 µM in the assay with SR leukemia.
For `O=C(c1cccs1)N(C(=S)OC12CC3CC(CC(C3)C1)C2)c1ccccc1`, the TGI with MDA-MB-231 breast, in the assay with MCF7 breast, in the assay on ACHN renal, in the assay on BT-549 breast, in the assay on CAKI-1 renal and in the assay with SF-295 CNS was more than 100 µM throughout. Further, the TGI with HCT-15 colon, in the assay with SW-620 colon and in the assay on SR leukemia was more than 100 µM in each case.
`CC12CC3OC(=O)C1COC14OC5(C2C1=O)C(O)(CCC1C4CC(O)C2(O)CC=CC(=O)C12C)C(=O)OC35C` (centres undefined): the TGI in the assay on MDA-MB-231 breast, in the assay with MCF7 breast, with ACHN renal, in the assay on BT-549 breast, with CAKI-1 renal and in the assay with SF-295 CNS was more than 100 µM each time. Further, the TGI with IGROV1 ovarian, in the assay on HCT-15 colon and in the assay on SW-620 colon was more than 100 µM throughout.
Turning to `COc1cccc2c1Cc1cc(-c3ccccc3)[n+](C)n1-2`, the TGI is 81.7 µM in the assay on MDA-MB-231 breast; 5.53 µM with MCF7 breast; 79.9 µM in the assay with ACHN renal; 99.5 µM with BT-549 breast; more than 100 µM in the assay with CAKI-1 renal; more than 100 µM in the assay with SF-295 CNS. Further, the TGI with IGROV1 ovarian, in the assay on HCT-15 colon, in the assay with SW-620 colon and with SR leukemia was more than 100 µM each time.

The values are drawn from PubChem BioAssay (NCI).
